Laboratory results from ChEMBL document CHEMBL3045111, “Synthesis and herbicidal activities of novel 3-(substituted benzyloxy or phenoxy)-6-methyl-4-(3-trifluoromethylphenyl)pyridazine derivatives” (2012).
Activity calls are given as the source filed them. No cut-off for these calls is given here.

Assays:
[1] = tested on: Brassica rapa subsp. oleifera; experiment: Post-emergence herbicidal activity against one-leaf stage Brassica rapa subsp. oleifera under greenhouse condition assessed as complete bleaching of leaves at 600 g /ha measured after 24 days by spray method; format: functional, organism-based
[2] = tested on: Brassica rapa subsp. oleifera; experiment: Post-emergence herbicidal activity against one-leaf stage Brassica rapa subsp. oleifera under greenhouse condition at 75 g /ha measured after 24 days by spray method; format: functional; settings: 576 h, read-out: GI
[3] = tested on: Brassica rapa subsp. oleifera; experiment: Post-emergence herbicidal activity against one-leaf stage Brassica rapa subsp. oleifera under greenhouse condition at 150 g /ha measured after 24 days by spray method; format: functional; settings: 576 h, read-out: GI
[4] = tested on: Brassica rapa subsp. oleifera; experiment: Post-emergence herbicidal activity against one-leaf stage Brassica rapa subsp. oleifera under greenhouse condition at 300 g /ha measured after 24 days by spray method; format: functional; settings: 576 h, read-out: GI
[5] = tested on: Brassica rapa subsp. oleifera; experiment: Post-emergence herbicidal activity against one-leaf stage Brassica rapa subsp. oleifera under greenhouse condition at 600 g /ha measured after 24 days by spray method; format: functional; settings: 576 h, read-out: GI
Digitaria [6] = experiment: Post-emergence herbicidal activity against one-leaf stage of Digitaria adscendens under greenhouse condition at 750 g /ha measured after 24 days by spray method; format: functional; settings: in Digitaria adscendens, 576 h, read-out: GI
Echinochloa crus-galli [7] = experiment: Post-emergence herbicidal activity against one-leaf stage of Echinochloa crus-galli (barnyard grass) under greenhouse condition at 750 g /ha measured after 24 days by spray method; format: functional; settings: 576 h, read-out: GI
Amaranthus retroflexus [8] = experiment: Post-emergence herbicidal activity against one-leaf stage of Amaranthus retroflexus under greenhouse condition at 750 g /ha measured after 24 days by spray method; format: functional; settings: 576 h, read-out: GI
[9] = tested on: Brassica rapa subsp. oleifera; experiment: Post-emergence herbicidal activity against one-leaf stage Brassica rapa subsp. oleifera under greenhouse condition at 750 g /ha measured after 24 days by spray method; format: functional; settings: 576 h, read-out: GI
Digitaria [10] = experiment: Pre-emergence herbicidal activity against Digitaria adscendens under greenhouse condition at 750 g /ha measured after 24 days by spray method; format: functional; settings: in Digitaria adscendens, 576 h, read-out: GI
Echinochloa crus-galli [11] = experiment: Pre-emergence herbicidal activity against Echinochloa crus-galli (barnyard grass) under greenhouse condition at 750 g /ha measured after 24 days by spray method; format: functional; settings: 576 h, read-out: GI
Amaranthus retroflexus [12] = experiment: Pre-emergence herbicidal activity against Amaranthus retroflexus under greenhouse condition at 750 g /ha measured after 24 days by spray method; format: functional; settings: 576 h, read-out: GI
[13] = tested on: Brassica rapa subsp. oleifera; experiment: Pre-emergence herbicidal activity against Brassica rapa subsp. oleifera under greenhouse condition at 750 g /ha measured after 24 days by spray method; format: functional; settings: 576 h, read-out: GI
Spirodela polyrhiza [14] = experiment: Bleaching herbicidal activity in Spirodela polyrhiza fronds cultured in compound-containing in medium assessed as chlorophyll inhibition at 1 ug/ml after 7 days; format: functional; settings: 168 h
Spirodela polyrhiza [15] = experiment: Bleaching herbicidal activity in Spirodela polyrhiza fronds cultured in compound-containing in medium assessed as chlorophyll inhibition at 10 ug/ml after 7 days; format: functional; settings: 168 h
Amaranthus retroflexus [16] = experiment: Post-emergence herbicidal activity against one-leaf stage Amaranthus retroflexus under greenhouse condition assessed as complete bleaching of leaves at 150 g /ha measured after 24 days by spray method; format: functional, organism-based
Amaranthus retroflexus [17] = experiment: Post-emergence herbicidal activity against one-leaf stage Amaranthus retroflexus under greenhouse condition assessed as complete bleaching of leaves at 300 g /ha measured after 24 days by spray method; format: functional, organism-based
Amaranthus retroflexus [18] = experiment: Post-emergence herbicidal activity against one-leaf stage Amaranthus retroflexus under greenhouse condition assessed as complete bleaching of leaves at 600 g /ha measured after 24 days by spray method; format: functional, organism-based
[19] = tested on: Brassica rapa subsp. oleifera; experiment: Post-emergence herbicidal activity against one-leaf stage Brassica rapa subsp. oleifera under greenhouse condition assessed as complete bleaching of leaves at 75 g /ha measured after 24 days by spray method; format: functional, organism-based
[20] = tested on: Brassica rapa subsp. oleifera; experiment: Post-emergence herbicidal activity against one-leaf stage Brassica rapa subsp. oleifera under greenhouse condition assessed as complete bleaching of leaves at 150 g /ha measured after 24 days by spray method; format: functional, organism-based
[21] = tested on: Brassica rapa subsp. oleifera; experiment: Post-emergence herbicidal activity against one-leaf stage Brassica rapa subsp. oleifera under greenhouse condition assessed as complete bleaching of leaves at 300 g /ha measured after 24 days by spray method; format: functional, organism-based
Amaranthus retroflexus [22] = experiment: Post-emergence herbicidal activity against one-leaf stage Amaranthus retroflexus under greenhouse condition at 75 g /ha measured after 24 days by spray method; format: functional; settings: 576 h, read-out: GI
Amaranthus retroflexus [23] = experiment: Post-emergence herbicidal activity against one-leaf stage Amaranthus retroflexus under greenhouse condition at 150 g /ha measured after 24 days by spray method; format: functional; settings: 576 h, read-out: GI
Amaranthus retroflexus [24] = experiment: Post-emergence herbicidal activity against one-leaf stage Amaranthus retroflexus under greenhouse condition at 300 g /ha measured after 24 days by spray method; format: functional; settings: 576 h, read-out: GI
Amaranthus retroflexus [25] = experiment: Post-emergence herbicidal activity against one-leaf stage Amaranthus retroflexus under greenhouse condition at 600 g /ha measured after 24 days by spray method; format: functional; settings: 576 h, read-out: GI
Amaranthus retroflexus [26] = experiment: Post-emergence herbicidal activity against one-leaf stage Amaranthus retroflexus under greenhouse condition assessed as complete bleaching of leaves at 75 g /ha measured after 24 days by spray method; format: functional, organism-based

Row | Structure (SMILES) | Activity [1] | inhibition of growth at 75 g/ha [2] [%] | inhibition of growth at 150 g/ha [3] [%] | inhibition of growth at 300 g/ha [4] [%] | inhibition of growth at 600 g/ha [5] [%] | inhibition of growth at 750 g/ha (Digitaria [6]) [%] | inhibition of growth at 750 g/ha (Echinochloa crus-galli [7]) [%] | inhibition of growth at 750 g/ha (Amaranthus retroflexus [8]) [%] | inhibition of growth at 750 g/ha [9] [%] | inhibition of growth at 750 g/ha (Digitaria [10]) [%] | inhibition of growth at 750 g/ha (Echinochloa crus-galli [11]) [%] | inhibition of growth at 750 g/ha (Amaranthus retroflexus [12]) [%] | inhibition of growth at 750 g/ha [13] [%] | inhibition at 1 µg/mL (Spirodela polyrhiza [14]) [%] | inhibition at 10 µg/mL (Spirodela polyrhiza [15]) [%] | Activity (Amaranthus retroflexus [16]) | Activity (Amaranthus retroflexus [17]) | Activity (Amaranthus retroflexus [18]) | Activity [19] | Activity [20] | other results
1 | Cc1cc(-c2cccc(C(F)(F)F)c2)c(Oc2ccc(F)cc2)nn1 | Active | 53 | 61 | 70 | 83 | 68 | 35 | 96 | 95 | 96 | 84 | 100 | 98 | 75 | 91 | Active | Active | Active | Active | Active | Activity [21]: Active; inhibition of growth at 75 g/ha (Amaranthus retroflexus [22]): 64%; inhibition of growth at 150 g/ha (Amaranthus retroflexus [23]): 79%; inhibition of growth at 300 g/ha (Amaranthus retroflexus [24]): 90%; inhibition of growth at 600 g/ha (Amaranthus retroflexus [25]): 100%; Activity (Amaranthus retroflexus [26]): Active
2 | O=C(Nc1ccc(F)cc1F)c1cccnc1Oc1cccc(C(F)(F)F)c1 [DIFLUFENICAN] | Active | 44 | 88 | 94 | 98 | 83 | 67 | 100 | 98 | 100 | 94 | 90 | 71 | 90 | 94 | Active | Active | Active | Active | Active | Activity [21]: Active; inhibition of growth at 75 g/ha (Amaranthus retroflexus [22]): 41%; inhibition of growth at 150 g/ha (Amaranthus retroflexus [23]): 70%; inhibition of growth at 300 g/ha (Amaranthus retroflexus [24]): 74%; inhibition of growth at 600 g/ha (Amaranthus retroflexus [25]): 100%; Activity (Amaranthus retroflexus [26]): Active
